Assay results as given in patent publication US20230265098A1, “ALKYNE QUINAZOLINE DERIVATIVES AS INHIBITORS OF ERBB2” (EnLiven Therapeutics, Inc., priority 2020, published 2023).

Legend:
ERBB2 (D769H) = ERBB2 (D769H) (Homo sapiens, UniProt P04626, D769H); experiment: Reaction Biology kinase activity assay (33P-ATP, HotSpot); assay type: biochemical; conditions: final enzyme concentration 150 nM; 100 μM 33P-ATP; 20 min preincubation, 2 hours at 25° C.
Procedure: (§1) Inhibition of kinase activity was assessed using a kinase activity assay (Anastassiadis, T. et al. Nat Biotechnol 2011 29: 1039-1045). In particular, substrate (poly Glu-Tyr sodium salt (Sigma Aldrich, cat #P7244)) was freshly prepared in reaction buffer (20 mM Hepes (pH 7.5), 10 mM MgCl2, 1 mM EGTA, 0.02% Brij35, 0.02 mg/ml BSA, 0.1 mM Na3VO4, 2 mM DTT, 1% DMSO). EGFR, ERBB2 or ERBB2 mutant kinases were added to the substrate solution and mixed at the final concentrations in Table B1, below. Compounds were dissolved in 100% DMSO and the resulting solutions were added to the kinase reaction mixture. The kinase reaction mixture was incubated with the compounds for 20 minutes at room temperature. 100 μM ^33P-ATP (Specific activity 10 μCi/μl) was then added to initiate the reaction. This mixture was incubated for 2 hours at 25° C.
(§2) Reactions were spotted onto P81 ion exchange filter paper (Whatman). Unbound phosphate was removed by extensive washing of filters in 0.75% phosphoric acid. Radioactivity was detected using a HotSpot, a proprietary technology of Reaction Biology Corporation (Anastassiadis, T. et al., Nat Biotechnol. 2011 29(11):1039-45). Kinase activity data were expressed as the percentage kinase activity remaining in test samples relative to vehicle only (i.e., DMSO only) control reactions. IC50 values and curve fits were obtained using Prism (GraphPad Software), using a nonlinear regression model with a sigmoidal dose response and are shown in Table B1.

ERBB2 (D769Y) = ERBB2 (D769Y) (Homo sapiens, UniProt P04626, D769Y); experiment: as above; assay type: biochemical; conditions: final enzyme concentration 15 nM; 100 μM 33P-ATP; 20 min preincubation, 2 hours at 25° C.
Procedure: as §1, §2

ERBB2 (P1170A) = ERBB2 (P1170A) (Homo sapiens, UniProt P04626, P1170A); experiment: as above; assay type: biochemical; conditions: final enzyme concentration 20 nM; 100 μM 33P-ATP; 20 min preincubation, 2 hours at 25° C.
Procedure: as §1, §2

ERBB2 (R896C) = ERBB2 (R896C) (Homo sapiens, UniProt P04626, R896C); experiment: as above; assay type: biochemical; conditions: final enzyme concentration 200 nM; 100 μM 33P-ATP; 20 min preincubation, 2 hours at 25° C.
Procedure: as §1, §2

ERBB2 (V777L) = ERBB2 (V777L) (Homo sapiens, UniProt P04626, V777L); experiment: as above; assay type: biochemical; conditions: final enzyme concentration 40 nM; 100 μM 33P-ATP; 20 min preincubation, 2 hours at 25° C.
Procedure: as §1, §2

ERBB2 (V777_G778insCG) = ERBB2 (V777_G778insCG) (Homo sapiens, UniProt P04626, INS777CG); experiment: as above; assay type: biochemical; conditions: final enzyme concentration 100 nM; 100 μM 33P-ATP; 20 min preincubation, 2 hours at 25° C.
Procedure: as §1, §2

ERBB2/HER2 = ERBB2/HER2 (Homo sapiens, UniProt P04626); experiment: as above; assay type: biochemical; conditions: final enzyme concentration 50 nM; 100 μM 33P-ATP; 20 min preincubation, 2 hours at 25° C.
Procedure: as §1, §2

A431 cells = experiment: Cell viability assay (CellTiter Glo); assay type: cell-based; conditions: Homo sapiens, A-431; 72 hours; 1500 cells per well, 384-well; DMEM + 10% FBS
Procedure: (§3) Cells were treated with compounds, and cell viability was measured as a metric of kinase inhibition.
(§4) The Ba/F3 cell line is IL-3-dependent mouse cell line derived from the C3H mouse strain. Ba/F3 cell lines were engineered to express human ERBB2 or EGFR kinases, rendering the cells IL-3 independent. The lines were generated via retroviral transduction utilizing a Moloney murine leukemia virus (MMLV) promoter, and constructs are stably integrated into the cell genome.
(§5) Similarly, Ba/F3 cell lines engineered to express EGFR, ERBB2, or ERBB2 mutants were grown, harvested, counted and seeded at 3000 cells per well in 96-well plates for the data sets shown in Tables B3-B4, and seeded at 300 cells per well in 384-well plates for the data set shown in Table B5. A subset of wells contained media only (low control, “LC”).
(§6) Table B2 provides the growth media and number of cells seeded per well for the each cell line.
(§7) Compounds were dissolved in DMSO and serially diluted. Serially-diluted compound or a DMSO only control (high control, “HC”) was added to the plated cells in each well. […] The final proportion of DMSO never exceeded 0.1%.
(§8) Plates were placed in a 37° C., 5% CO2 incubator for 72 hours. Plates were then removed from the incubator and equilibrated for 15 minutes at room temperature. 40 IA of CellTiter Glo reagent (Promega) was added to measure the relative level of metabolically active cells by quantifying intracellular ATP concentrations. Plates were incubated for 30 minutes at room temperature, and luminescence was measured. Percent viability was normalized to a vehicle control only using the following formula: % viability=100×(LumSample−LumLC) (LumHC−LumLC). Graphical curves were fitted using a nonlinear regression model with a sigmoidal dose response.

BT-474 cells = experiment: Cell viability assay (CellTiter Glo); assay type: cell-based; conditions: Homo sapiens, 72 hours, 2000 cells per well, 384-well, DMEM + 10% FBS
Procedure: as §3, §4, §5, §6, §7, §8

MDA-MB-175VII cells = experiment: Cell viability assay (CellTiter Glo); assay type: cell-based; conditions: Homo sapiens, 72 hours, 2000 cells per well, 384-well, RPMI + 10% FBS
Procedure: as §3, §4, §5, §6, §7, §8

Ba/F3 EGFR wt = target: T1, Ba/F3 EGFR wt (Homo sapiens, UniProt P00533); experiment: Cell viability assay (CellTiter Glo); assay type: cell-based, mouse; conditions: 72 hours; 3000 cells per well, 96-well plates; read-out: Cell viability IC50, nM, Ba/F3 EGFR wt
T1 construct: Ba/F3 cell lines were engineered to express human ERBB2 or EGFR kinases, rendering the cells IL-3 independent
Method in brief: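 Murine Ba/F3 cells made IL-3-independent by retroviral human EGFR or ERBB2 were seeded at 3000 or 300 cells per well and exposed to serially diluted compound (DMSO ≤0.1%) for 72 hours at 37° C, 5% CO2. CellTiter Glo luminescence was normalised to DMSO and media-only controls and fitted to a sigmoidal dose-response.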

[1] = target: T2, Ba/F3 ERBB2-P780_Y781insGSP (Homo sapiens, UniProt P04626, DUP778-780, cells depend on it); experiment: Cell viability assay (CellTiter Glo); assay type: cell-based, mouse; conditions: 72 hours; 3000 cells per well, 96-well plates; read-out: Cell viability IC50, nM, Ba/F3 ERBB2-P780_Y781insGSP
T2 construct: Ba/F3 cell lines were engineered to express human ERBB2 or EGFR kinases, rendering the cells IL-3 independent
Procedure: as §3, §4, §5, §6, §7
as §8, with “Percent viability was normalized to a vehicle control only using the following formula: % viability=100×(LumSample−LumLC) (LumHC−LumLC).” left out

T2 sequence (P04626 with tags, fused parts or gaps DUP778-780): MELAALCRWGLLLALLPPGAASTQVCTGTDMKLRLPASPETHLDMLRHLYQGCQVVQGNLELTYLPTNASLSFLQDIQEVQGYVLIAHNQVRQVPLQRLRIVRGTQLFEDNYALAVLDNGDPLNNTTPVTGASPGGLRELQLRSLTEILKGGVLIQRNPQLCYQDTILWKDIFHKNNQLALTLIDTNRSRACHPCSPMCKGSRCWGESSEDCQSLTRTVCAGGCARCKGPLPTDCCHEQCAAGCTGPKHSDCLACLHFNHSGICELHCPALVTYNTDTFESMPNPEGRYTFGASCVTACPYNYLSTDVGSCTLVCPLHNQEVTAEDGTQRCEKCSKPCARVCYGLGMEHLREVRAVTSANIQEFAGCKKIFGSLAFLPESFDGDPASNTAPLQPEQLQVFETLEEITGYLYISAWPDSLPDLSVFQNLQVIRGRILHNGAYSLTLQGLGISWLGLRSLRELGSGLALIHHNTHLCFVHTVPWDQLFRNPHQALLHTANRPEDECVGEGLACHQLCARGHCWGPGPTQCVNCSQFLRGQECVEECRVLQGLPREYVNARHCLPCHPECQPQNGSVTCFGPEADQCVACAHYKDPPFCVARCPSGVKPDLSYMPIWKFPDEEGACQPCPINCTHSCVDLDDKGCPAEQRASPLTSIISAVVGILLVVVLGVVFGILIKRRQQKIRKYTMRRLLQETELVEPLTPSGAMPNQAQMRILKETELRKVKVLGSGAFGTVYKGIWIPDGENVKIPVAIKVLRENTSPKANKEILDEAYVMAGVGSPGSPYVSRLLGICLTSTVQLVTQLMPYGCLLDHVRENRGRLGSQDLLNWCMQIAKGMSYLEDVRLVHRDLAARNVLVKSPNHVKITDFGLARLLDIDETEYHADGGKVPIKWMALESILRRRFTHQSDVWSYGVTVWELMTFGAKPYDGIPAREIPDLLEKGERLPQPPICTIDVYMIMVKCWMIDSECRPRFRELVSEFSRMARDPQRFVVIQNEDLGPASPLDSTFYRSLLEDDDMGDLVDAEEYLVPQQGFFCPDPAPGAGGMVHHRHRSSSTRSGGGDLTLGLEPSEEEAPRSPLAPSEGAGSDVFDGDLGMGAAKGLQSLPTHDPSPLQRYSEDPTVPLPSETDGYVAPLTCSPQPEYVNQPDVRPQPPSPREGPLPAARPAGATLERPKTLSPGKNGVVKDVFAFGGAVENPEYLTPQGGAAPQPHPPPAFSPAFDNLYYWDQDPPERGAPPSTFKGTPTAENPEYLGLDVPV
T1 sequence (P00533 whole entry, change not shown): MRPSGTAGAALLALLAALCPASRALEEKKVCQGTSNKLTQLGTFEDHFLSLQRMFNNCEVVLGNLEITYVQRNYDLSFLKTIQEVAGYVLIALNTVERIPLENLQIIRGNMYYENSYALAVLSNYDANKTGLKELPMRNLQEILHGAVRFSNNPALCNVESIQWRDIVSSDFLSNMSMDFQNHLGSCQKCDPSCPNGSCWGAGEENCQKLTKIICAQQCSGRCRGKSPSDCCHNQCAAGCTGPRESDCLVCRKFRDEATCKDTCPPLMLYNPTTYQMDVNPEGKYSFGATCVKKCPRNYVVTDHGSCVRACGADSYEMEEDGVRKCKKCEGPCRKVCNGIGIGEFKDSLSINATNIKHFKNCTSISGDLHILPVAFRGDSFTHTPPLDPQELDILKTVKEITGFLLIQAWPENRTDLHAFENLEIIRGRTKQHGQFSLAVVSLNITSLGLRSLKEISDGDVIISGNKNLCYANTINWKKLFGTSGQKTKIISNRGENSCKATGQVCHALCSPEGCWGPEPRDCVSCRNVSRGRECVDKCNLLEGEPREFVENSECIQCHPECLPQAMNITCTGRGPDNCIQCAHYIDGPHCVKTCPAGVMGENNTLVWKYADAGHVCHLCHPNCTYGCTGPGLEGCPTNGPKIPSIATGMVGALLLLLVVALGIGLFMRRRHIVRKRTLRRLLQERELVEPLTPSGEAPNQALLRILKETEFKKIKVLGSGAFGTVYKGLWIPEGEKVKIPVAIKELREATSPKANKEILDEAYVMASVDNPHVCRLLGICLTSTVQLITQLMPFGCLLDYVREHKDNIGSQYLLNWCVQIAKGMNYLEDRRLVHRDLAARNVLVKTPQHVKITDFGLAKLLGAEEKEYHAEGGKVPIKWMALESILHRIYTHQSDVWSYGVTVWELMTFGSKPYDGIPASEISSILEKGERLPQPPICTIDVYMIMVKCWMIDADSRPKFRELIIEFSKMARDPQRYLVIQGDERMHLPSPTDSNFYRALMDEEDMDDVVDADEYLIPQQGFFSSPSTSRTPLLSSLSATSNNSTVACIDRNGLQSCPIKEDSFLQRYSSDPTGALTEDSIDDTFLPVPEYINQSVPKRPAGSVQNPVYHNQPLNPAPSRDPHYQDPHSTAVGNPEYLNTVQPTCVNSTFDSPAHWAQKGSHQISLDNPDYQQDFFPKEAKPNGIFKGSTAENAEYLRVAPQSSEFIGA
ERBB2 (D769Y), sequence (P04626 23-1255 D769Y): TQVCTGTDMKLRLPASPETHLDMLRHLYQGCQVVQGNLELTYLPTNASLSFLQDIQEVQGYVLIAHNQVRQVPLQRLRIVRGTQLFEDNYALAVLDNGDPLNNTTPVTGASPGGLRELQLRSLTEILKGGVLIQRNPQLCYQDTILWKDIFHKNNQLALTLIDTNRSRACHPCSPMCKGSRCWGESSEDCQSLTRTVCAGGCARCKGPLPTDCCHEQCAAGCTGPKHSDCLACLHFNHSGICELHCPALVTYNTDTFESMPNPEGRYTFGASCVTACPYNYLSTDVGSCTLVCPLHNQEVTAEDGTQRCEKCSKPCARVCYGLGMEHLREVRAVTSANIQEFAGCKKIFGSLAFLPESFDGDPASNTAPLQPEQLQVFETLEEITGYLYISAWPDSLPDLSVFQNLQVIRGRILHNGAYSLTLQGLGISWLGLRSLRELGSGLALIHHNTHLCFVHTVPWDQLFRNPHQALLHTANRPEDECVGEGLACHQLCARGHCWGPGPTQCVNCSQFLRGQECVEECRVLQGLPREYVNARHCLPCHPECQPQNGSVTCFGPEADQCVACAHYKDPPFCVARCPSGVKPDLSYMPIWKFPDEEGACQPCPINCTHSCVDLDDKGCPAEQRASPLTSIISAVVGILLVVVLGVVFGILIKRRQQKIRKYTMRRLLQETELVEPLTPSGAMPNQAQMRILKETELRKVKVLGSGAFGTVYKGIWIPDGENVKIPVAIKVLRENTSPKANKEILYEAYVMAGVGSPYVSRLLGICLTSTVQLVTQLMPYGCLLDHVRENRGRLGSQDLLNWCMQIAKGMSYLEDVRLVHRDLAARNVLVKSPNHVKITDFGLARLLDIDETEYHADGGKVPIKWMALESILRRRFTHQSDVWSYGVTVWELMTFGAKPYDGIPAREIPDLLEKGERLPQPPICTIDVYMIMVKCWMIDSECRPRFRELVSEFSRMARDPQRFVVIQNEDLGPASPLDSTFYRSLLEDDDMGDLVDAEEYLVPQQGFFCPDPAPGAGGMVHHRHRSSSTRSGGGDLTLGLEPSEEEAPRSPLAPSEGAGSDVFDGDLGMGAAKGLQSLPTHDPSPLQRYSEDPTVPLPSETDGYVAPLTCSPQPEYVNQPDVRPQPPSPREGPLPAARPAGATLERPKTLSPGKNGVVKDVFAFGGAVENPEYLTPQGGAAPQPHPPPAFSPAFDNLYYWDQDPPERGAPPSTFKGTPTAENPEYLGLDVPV
ERBB2 (V777L), sequence (P04626 23-1255 V777L): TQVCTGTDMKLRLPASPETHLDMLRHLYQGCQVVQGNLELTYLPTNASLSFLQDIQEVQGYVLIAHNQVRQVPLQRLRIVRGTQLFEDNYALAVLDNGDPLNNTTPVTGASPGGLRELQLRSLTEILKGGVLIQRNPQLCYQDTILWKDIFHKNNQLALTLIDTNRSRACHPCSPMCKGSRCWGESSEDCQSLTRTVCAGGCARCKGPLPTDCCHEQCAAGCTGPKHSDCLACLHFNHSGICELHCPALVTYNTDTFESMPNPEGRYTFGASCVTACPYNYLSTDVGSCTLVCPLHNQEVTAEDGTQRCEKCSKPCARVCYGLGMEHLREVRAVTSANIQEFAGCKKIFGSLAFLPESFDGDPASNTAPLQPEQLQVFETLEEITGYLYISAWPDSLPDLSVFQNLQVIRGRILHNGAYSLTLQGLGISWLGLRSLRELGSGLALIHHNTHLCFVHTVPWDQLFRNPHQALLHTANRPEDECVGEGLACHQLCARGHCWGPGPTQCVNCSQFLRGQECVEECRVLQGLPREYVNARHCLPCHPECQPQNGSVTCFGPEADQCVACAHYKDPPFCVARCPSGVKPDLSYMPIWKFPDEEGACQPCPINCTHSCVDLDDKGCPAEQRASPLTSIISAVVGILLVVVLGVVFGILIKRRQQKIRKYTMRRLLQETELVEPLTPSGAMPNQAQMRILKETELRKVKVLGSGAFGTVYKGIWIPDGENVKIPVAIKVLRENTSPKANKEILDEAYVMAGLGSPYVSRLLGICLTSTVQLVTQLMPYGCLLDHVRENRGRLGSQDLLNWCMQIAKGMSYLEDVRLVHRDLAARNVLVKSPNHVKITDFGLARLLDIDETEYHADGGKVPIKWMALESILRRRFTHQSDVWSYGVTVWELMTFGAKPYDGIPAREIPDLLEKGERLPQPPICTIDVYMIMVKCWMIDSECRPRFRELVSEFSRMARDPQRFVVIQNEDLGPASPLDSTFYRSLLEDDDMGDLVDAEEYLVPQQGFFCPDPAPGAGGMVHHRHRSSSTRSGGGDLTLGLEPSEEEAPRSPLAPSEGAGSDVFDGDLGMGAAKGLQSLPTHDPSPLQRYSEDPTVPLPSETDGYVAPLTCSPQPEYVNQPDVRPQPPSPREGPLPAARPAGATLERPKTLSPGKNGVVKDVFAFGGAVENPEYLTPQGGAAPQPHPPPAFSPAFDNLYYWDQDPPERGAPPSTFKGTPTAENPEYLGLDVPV

Row | Compound | IC50 (ERBB2 (D769H)) [nM] | IC50 (ERBB2 (D769Y)) [nM] | IC50 (ERBB2 (P1170A)) [nM] | IC50 (ERBB2 (R896C)) [nM] | IC50 (ERBB2 (V777L)) [nM] | IC50 (ERBB2 (V777_G778insCG)) [nM] | IC50 (ERBB2/HER2) [nM] | IC50 (A431 cells) [nM] | IC50 (BT-474 cells) [nM] | IC50 (MDA-MB-175VII cells) [nM] | GI50 (Ba/F3 EGFR wt) [nM] | GI50 [1] [nM]
1 | CC#CC(=O)Nc1ccc2ncnc(Nc3ccc(Oc4ccn5ncnc5c4)c(C)c3)c2c1 [Compound 1, N-[4-[(3-methyl-4-[[1,2,4]triazolo[1,5-a]pyridin-7-yloxy]phenyl)amino]quinazolin-6-yl]but-2-ynamide] | 1.04 | 1.56 | 0.68 | 2.29 | 1.38 | 0.97 | 0.49 | 1730 | 3.89 | 9 | 2750 | 0.65
2 | CC#CC(=O)Nc1cc2c(Nc3ccc(Oc4ccn5ncnc5c4)c(C)c3)ncnc2cc1OCCN(C)C [Compound 150, N-[7-[2-(dimethylamino)ethoxy]-4-[(3-methyl-4-[[1,2,4]triazolo[1,5-a]pyridin-7-yloxy]phenyl)amino]quinazolin-6-yl]but-2-ynamide] |  |  |  |  |  |  |  |  |  |  |  | 2.63
3 | Cc1cc(Nc2ncnc3ccc(NC4=NC(C)(C)CO4)cc23)ccc1Oc1ccn2ncnc2c1 [Tucatinib, tucatinib, reference compound] | 5 | 13.7 | 3.99 | 2.95 | 4.3 | 4.43 | 3.07 | > 10000 | 41.8 | 89 | > 10000 | 25.3
